PubChem BioAssay (NCI)
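GI50 = concentration required for 50% inhibition of growth. Definition used: TGI = concentration required for complete inhibition of growth.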

Tests used:
Assay in all cases: inhibition of tumour cell growth, NCI panel, 384-well format
[1] = system: 786-0 renal
[2] = system: A498 renal
[3] = system: A549 NSCLC
[4] = system: ACHN renal
[5] = system: BT-549 breast
[6] = system: CAKI-1 renal
[7] = system: CCRF-CEM leukemia
[8] = system: COLO 205 colon
[9] = system: DU-145 prostate
[10] = system: EKVX NSCLC
[11] = system: HCC-2998 colon
[12] = system: HCT-15 colon
[13] = system: HL-60(TB) leukemia
[14] = system: HOP-62 NSCLC
[15] = system: HOP-92 NSCLC
[16] = system: HS 578T breast
[17] = system: HT29 colon
[18] = system: IGROV1 ovarian
[19] = system: K-562 leukemia
[20] = system: KM12 colon
[21] = system: LOX IMVI melanoma
[22] = system: M14 melanoma
[23] = system: MALME-3M melanoma
[24] = system: MCF7 breast
[25] = system: MDA-MB-231 breast
[26] = system: MDA-MB-435 melanoma
[27] = system: MDA-MB-468 breast
[28] = system: MOLT-4 leukemia
[29] = system: NCI-H226 lung
[30] = system: NCI-H23 lung
[31] = system: NCI-H322M lung
[32] = system: NCI-H460 NSCLC
[33] = system: NCI-H522 lung
[34] = system: NCI/ADR-RES ovarian
[35] = system: OVCAR-3 ovarian
[36] = system: OVCAR-4 ovarian
[37] = system: OVCAR-5 ovarian
[38] = system: OVCAR-8 ovarian
[39] = system: PC-3 prostate
[40] = system: RPMI-8226 leukemia
[41] = system: RXF 393 renal
[42] = system: SF-268 CNS
[43] = system: SF-295 CNS
[44] = system: SF-539 CNS
[45] = system: SK-MEL-28 melanoma
[46] = system: SK-MEL-5 melanoma
[47] = system: SK-OV-3 ovarian
[48] = system: SN12C renal
[49] = system: SNB-19 CNS
[50] = system: SNB-75 CNS
[51] = system: SR leukemia
[52] = system: SW-620 colon
[53] = system: T-47D breast
[54] = system: TK-10 renal
[55] = system: U251 glioblastoma
[56] = system: UACC-257 melanoma
[57] = system: UACC-62 melanoma
[58] = system: UO-31 renal

Compound: O=C(O)CCC1CCC(c2cc(F)ccc2F)(S(=O)(=O)c2ccc(Cl)cc2)CC1 (stereo unspecified)
- GI50 [1]: > 100 µM
- TGI [1]: > 100 µM
- GI50 [2]: > 100 µM
- TGI [2]: > 100 µM
- GI50 [3]: > 100 µM
- TGI [3]: > 100 µM
- GI50 [4]: > 100 µM
- TGI [4]: > 100 µM
- GI50 [5]: > 100 µM
- TGI [5]: > 100 µM
- GI50 [6]: > 100 µM
- TGI [6]: > 100 µM
- GI50 [7]: 75.8 µM
- TGI [7]: > 100 µM
- GI50 [8]: > 100 µM
- TGI [8]: > 100 µM
- GI50 [9]: > 100 µM
- TGI [9]: > 100 µM
- GI50 [10]: > 100 µM
- TGI [10]: > 100 µM
- GI50 [11]: > 100 µM
- TGI [11]: > 100 µM
- GI50 [12]: > 100 µM
- TGI [12]: > 100 µM
- GI50 [13]: > 100 µM
- TGI [13]: > 100 µM
- GI50 [14]: > 100 µM
- TGI [14]: > 100 µM
- GI50 [15]: > 100 µM
- TGI [15]: > 100 µM
- GI50 [16]: > 100 µM
- TGI [16]: > 100 µM
- GI50 [17]: > 100 µM
- TGI [17]: > 100 µM
- GI50 [18]: > 100 µM
- TGI [18]: > 100 µM
- GI50 [19]: > 100 µM
- TGI [19]: > 100 µM
- GI50 [20]: > 100 µM
- TGI [20]: > 100 µM
- GI50 [21]: > 100 µM
- TGI [21]: > 100 µM
- GI50 [22]: > 100 µM
- TGI [22]: > 100 µM
- GI50 [23]: 62 µM
- TGI [23]: > 100 µM
- GI50 [24]: > 100 µM
- TGI [24]: > 100 µM
- GI50 [25]: > 100 µM
- TGI [25]: > 100 µM
- GI50 [26]: 71.9 µM
- TGI [26]: > 100 µM
- GI50 [27]: 8.1 µM
- TGI [27]: 80.4 µM
- GI50 [28]: 65 µM
- TGI [28]: > 100 µM
- GI50 [29]: > 100 µM
- TGI [29]: > 100 µM
- GI50 [30]: > 100 µM
- TGI [30]: > 100 µM
- GI50 [31]: > 100 µM
- TGI [31]: > 100 µM
- GI50 [32]: > 100 µM
- TGI [32]: > 100 µM
- GI50 [33]: > 100 µM
- TGI [33]: > 100 µM
- GI50 [34]: > 100 µM
- TGI [34]: > 100 µM
- GI50 [35]: > 100 µM
- TGI [35]: > 100 µM
- GI50 [36]: 78.8 µM
- TGI [36]: > 100 µM
- GI50 [37]: > 100 µM
- TGI [37]: > 100 µM
- GI50 [38]: > 100 µM
- TGI [38]: > 100 µM
- GI50 [39]: > 100 µM
- TGI [39]: > 100 µM
- GI50 [40]: > 100 µM
- TGI [40]: > 100 µM
- GI50 [41]: > 100 µM
- TGI [41]: > 100 µM
- GI50 [42]: > 100 µM
- TGI [42]: > 100 µM
- GI50 [43]: > 100 µM
- TGI [43]: > 100 µM
- GI50 [44]: > 100 µM
- TGI [44]: > 100 µM
- GI50 [45]: > 100 µM
- TGI [45]: > 100 µM
- GI50 [46]: > 100 µM
- TGI [46]: > 100 µM
- GI50 [47]: > 100 µM
- TGI [47]: > 100 µM
- GI50 [48]: > 100 µM
- TGI [48]: > 100 µM
- GI50 [49]: > 100 µM
- TGI [49]: > 100 µM
- GI50 [50]: > 100 µM
- TGI [50]: > 100 µM
- GI50 [51]: 24.8 µM
- TGI [51]: > 100 µM
- GI50 [52]: > 100 µM
- TGI [52]: > 100 µM
- GI50 [53]: 99.6 µM
- TGI [53]: > 100 µM
- GI50 [54]: > 100 µM
- TGI [54]: > 100 µM
- GI50 [55]: > 100 µM
- TGI [55]: > 100 µM
- GI50 [56]: > 100 µM
- TGI [56]: > 100 µM
- GI50 [57]: > 100 µM
- TGI [57]: > 100 µM
- GI50 [58]: > 100 µM
- TGI [58]: > 100 µM
